From patent US10660877B2 (BRISTOL-MYERS SQUIBB COMPANY, priority 2016, dated 2020)
Like-named read-outs stand apart in the source and are kept apart here.

Tests used:
human TLR7 = human TLR7 (Homo sapiens (Human), UniProt Q9NYK1); assay: TLR7 inhibition reporter assay (HEK-Blue cells, SEAP reporter, gardiquimod stimulation); type: cell-based
human TLR9 = human TLR9 (Homo sapiens (Human), UniProt Q9NR96); assay: TLR9 inhibition reporter assay (HEK-Blue cells, SEAP reporter, ODN2006 stimulation);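 note: compounds tested over 0.05 nM to 50 µM, 22 h incubation, inhibition taken as SEAP signal drop from agonist plus DMSO wells toward a known inhibitor control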
Sequence of human TLR9 (Q9NR96 26-1032): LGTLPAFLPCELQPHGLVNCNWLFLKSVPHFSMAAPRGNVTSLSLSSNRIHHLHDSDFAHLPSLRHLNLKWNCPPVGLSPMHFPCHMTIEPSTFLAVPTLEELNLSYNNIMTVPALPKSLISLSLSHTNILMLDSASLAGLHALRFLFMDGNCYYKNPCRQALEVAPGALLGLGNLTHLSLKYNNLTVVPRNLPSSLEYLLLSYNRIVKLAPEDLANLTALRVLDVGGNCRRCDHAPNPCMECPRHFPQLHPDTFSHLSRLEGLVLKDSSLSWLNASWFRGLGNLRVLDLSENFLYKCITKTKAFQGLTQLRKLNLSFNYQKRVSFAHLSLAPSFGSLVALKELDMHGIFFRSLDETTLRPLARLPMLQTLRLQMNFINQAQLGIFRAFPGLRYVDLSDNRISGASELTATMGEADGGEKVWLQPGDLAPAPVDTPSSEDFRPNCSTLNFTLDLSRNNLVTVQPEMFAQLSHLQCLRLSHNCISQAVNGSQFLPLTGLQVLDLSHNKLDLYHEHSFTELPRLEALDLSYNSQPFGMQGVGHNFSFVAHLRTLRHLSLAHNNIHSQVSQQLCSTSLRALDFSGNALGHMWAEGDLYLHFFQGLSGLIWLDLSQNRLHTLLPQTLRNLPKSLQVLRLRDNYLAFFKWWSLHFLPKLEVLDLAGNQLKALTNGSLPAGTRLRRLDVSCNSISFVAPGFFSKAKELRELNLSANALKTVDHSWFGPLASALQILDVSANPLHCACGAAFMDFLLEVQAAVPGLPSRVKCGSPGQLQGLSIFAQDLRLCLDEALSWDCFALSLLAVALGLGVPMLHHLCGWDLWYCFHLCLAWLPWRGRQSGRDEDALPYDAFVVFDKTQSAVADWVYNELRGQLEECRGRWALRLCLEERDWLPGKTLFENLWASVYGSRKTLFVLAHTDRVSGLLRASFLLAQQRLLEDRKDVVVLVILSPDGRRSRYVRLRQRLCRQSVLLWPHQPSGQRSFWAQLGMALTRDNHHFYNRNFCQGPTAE

human TLR8 = human TLR8 (Homo sapiens (Human), UniProt Q9NR97); assay: TLR8 inhibition reporter assay (HEK-Blue cells, SEAP reporter, R848 stimulation);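 note: compounds tested from 0.05 nM to 50 µM, 22 h at 37 °C, SEAP measured with HEK-Blue Detection, inhibition relative to agonist plus DMSO versus a known inhibitor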
Sequence of human TLR8 (Q9NR97 27-1041): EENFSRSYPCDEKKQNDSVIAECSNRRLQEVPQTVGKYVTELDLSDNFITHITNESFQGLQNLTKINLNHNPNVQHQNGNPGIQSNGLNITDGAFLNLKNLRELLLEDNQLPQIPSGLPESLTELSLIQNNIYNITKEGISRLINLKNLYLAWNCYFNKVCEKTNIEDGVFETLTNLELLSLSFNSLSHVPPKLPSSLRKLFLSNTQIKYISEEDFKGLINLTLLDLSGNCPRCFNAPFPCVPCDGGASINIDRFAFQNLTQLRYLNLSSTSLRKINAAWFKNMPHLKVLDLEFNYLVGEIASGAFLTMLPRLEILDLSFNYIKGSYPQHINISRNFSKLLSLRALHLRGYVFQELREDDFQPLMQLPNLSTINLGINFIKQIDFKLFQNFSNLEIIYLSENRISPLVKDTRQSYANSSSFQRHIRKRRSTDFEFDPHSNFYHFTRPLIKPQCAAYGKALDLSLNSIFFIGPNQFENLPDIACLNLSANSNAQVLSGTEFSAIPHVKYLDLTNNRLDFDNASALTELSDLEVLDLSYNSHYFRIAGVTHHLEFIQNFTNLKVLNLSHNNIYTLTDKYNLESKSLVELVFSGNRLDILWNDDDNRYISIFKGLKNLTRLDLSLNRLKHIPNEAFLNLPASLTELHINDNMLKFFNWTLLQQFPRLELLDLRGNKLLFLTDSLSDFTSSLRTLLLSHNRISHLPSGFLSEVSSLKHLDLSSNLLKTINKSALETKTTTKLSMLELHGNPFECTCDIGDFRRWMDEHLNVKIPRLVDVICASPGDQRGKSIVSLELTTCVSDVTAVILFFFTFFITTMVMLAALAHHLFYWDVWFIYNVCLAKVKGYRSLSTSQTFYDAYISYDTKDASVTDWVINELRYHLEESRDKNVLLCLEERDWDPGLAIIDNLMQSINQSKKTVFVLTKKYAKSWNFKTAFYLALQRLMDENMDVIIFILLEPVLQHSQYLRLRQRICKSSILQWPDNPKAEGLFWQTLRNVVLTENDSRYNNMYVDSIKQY

[1] = HEK-Blue cells overexpressing human TLR7, gardiquimod 7.5 μM
[2] = read-out: TLR9 IC50, HEK-Blue cells overexpressing human TLR9, ODN2006 5 nM
[3] = read-out: TLR8 IC50, HEK-Blue cells overexpressing human TLR8, R848 15.9 μM
[4] = HEK-Blue cells, gardiquimod 7.5 μM
[5] = read-out: TLR9 IC50, HEK-Blue cells, ODN2006 5 nM
[6] = read-out: TLR8 IC50, HEK-Blue cells, R848 15.9 μM
[7] = TLR9 IC50, HEK-Blue cells overexpressing human TLR9, ODN2006 5 nM
[8] = TLR8 IC50, HEK-Blue cells overexpressing human TLR8, R848 15.9 μM

Sequence of human TLR7 (Q9NYK1 27-1049): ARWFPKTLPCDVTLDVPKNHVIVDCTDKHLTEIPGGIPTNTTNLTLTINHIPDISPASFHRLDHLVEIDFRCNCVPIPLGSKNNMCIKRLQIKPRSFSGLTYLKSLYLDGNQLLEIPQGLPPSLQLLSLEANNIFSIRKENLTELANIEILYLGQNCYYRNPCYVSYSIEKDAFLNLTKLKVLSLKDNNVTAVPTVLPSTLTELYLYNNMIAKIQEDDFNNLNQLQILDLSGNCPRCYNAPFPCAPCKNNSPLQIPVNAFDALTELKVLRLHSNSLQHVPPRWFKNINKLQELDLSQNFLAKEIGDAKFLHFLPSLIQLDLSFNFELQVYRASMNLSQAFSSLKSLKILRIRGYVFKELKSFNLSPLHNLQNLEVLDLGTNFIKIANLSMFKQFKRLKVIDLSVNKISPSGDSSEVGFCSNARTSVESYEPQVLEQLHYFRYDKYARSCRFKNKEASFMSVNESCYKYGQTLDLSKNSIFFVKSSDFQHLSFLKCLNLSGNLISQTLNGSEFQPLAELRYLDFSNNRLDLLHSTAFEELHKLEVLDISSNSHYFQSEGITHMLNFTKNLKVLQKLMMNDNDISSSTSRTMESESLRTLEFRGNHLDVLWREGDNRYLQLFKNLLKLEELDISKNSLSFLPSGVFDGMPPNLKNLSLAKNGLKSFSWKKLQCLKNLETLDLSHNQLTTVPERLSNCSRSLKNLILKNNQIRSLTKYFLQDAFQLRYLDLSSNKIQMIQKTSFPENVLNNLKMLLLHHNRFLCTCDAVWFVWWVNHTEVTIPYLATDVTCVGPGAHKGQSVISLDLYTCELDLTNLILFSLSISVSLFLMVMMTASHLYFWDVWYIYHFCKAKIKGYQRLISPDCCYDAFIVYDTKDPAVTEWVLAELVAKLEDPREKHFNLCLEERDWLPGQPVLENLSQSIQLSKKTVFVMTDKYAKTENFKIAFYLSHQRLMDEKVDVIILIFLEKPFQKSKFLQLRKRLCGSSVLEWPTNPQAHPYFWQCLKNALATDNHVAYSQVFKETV

SMILES | IC50 (human TLR7; [1]) [nM] | IC50 (human TLR9; [2]) [nM] | IC50 (human TLR8; [3]) [nM] | IC50 (human TLR7; [4]) [nM] | IC50 (human TLR9; [5]) [nM] | IC50 (human TLR8; [6]) [nM] | IC50 (human TLR9; [7]) [nM] | IC50 (human TLR8; [8]) [nM]
Cc1cc(-c2[nH]c3ccc(C4CCN(CC(=O)NC5(C)CCOCC5)CC4)cc3c2C(C)C)cc(C)n1 [Example 267, 2-(4-(2-(2,6-dimethylpyridin-4-yl)-3-isopropyl-1H-indol-5-yl)piperidin-1-yl)-N-(4-methyltetrahydro-2H-pyran-4-yl)acetamide] | 2.6 | 348 | 11.1 | – | – | – | – | –
Cc1cc(-c2[nH]c3ccc(C4CCN(C(=O)C5(C)CC5)CC4)cc3c2C(C)C)ccn1 [Example 610, (4-(3-isopropyl-2-(2-methylpyridin-4-yl)-1H-indol-5-yl)piperidin-1-yl)(1-methylcyclopropyl)methanone] | 48.6 | 47300 | 163 | – | – | – | – | –
COc1cc(-c2[nH]c3ccc(C4CCN(C5CCN(CC(C)C)CC5)CC4)cc3c2C(C)C)ccn1 [Example 803, 5-(1′-isobutyl-[1,4′-bipiperidin]-4-yl)-3-isopropyl-2-(2-methoxypyridin-4-yl)-1H-indole] | 79.7 | 986 | 333 | – | – | – | – | –
COC(=O)N1CCC(c2ccc3[nH]c(-c4ccnc(C)c4)c(C(C)C)c3c2)CC1 [Example 562, methyl 4-(3-isopropyl-2-(2-methylpyridin-4-yl)-1H-indol-5-yl) piperidine-1-carboxylate] | 287 | > 50000 | 1400 | – | – | – | – | –
Cc1cc(-c2[nH]c3ccc(C4CCN(C(=O)CCNc5ncccn5)CC4)cc3c2C(C)C)cc(C)n1 [Example 146, 1-(4-(2-(2,6-dimethylpyridin-4-yl)-3-isopropyl-1H-indol-5-yl)piperidin-1-yl)-3-(pyrimidin-2-ylamino) propan-1-one] | 7.4 | 46800 | 85.9 | – | – | – | – | –
CCN(CC)C(=O)CN1CCC(c2ccc3[nH]c(-c4cc(C)nc(C)c4)c(C(C)C)c3c2)CC1 [Example 228, 2-(4-(2-(2,6-dimethylpyridin-4-yl)-3-isopropyl-1H-indol-5-yl)piperidin-1-yl)-N,N-diethylacetamide] | 11.5 | 1110 | 28.2 | – | – | – | – | –
Cc1cc(-c2[nH]c3ccc(C4CCN(CC(=O)N5CCC(F)(F)CC5)CC4)cc3c2C(C)C)cc(C)n1 [Example 257, 1-(4,4-difluoropiperidin-1-yl)-2-(4-(2-(2,6-dimethylpyridin-4-yl)-3-isopropyl-1H-indol-5-yl)piperidin-1-yl)ethan-1-one] | 9.8 | 607 | 13.8 | – | – | – | – | –
Cc1cc(-c2[nH]c3ccc(C4CCN(C(=O)C5CC(=O)N(C)C5)CC4)cc3c2C(C)C)c(F)cn1 (stereo not drawn) [Example 583, 4-(4-(2-(5-fluoro-2-methylpyridin-4-yl)-3-isopropyl-1H-indol-5-yl)piperidine-1-carbonyl)-1-methylpyrrolidin-2-one] | 15.6 | > 50000 | 36.8 | – | – | – | – | –
CC(C)c1c(-c2ccncc2NC(=O)C(C)(C)C)[nH]c2ccc(C3CCNCC3)cc12 [Example 37, N-(4-(3-isopropyl-5-(piperidin-4-yl)-1H-indol-2-yl)pyridin-3-yl) pivalamide] | 42700 | 6100 | 635 | – | – | – | – | –
CCc1c(-c2cc(C)nc(C)c2)[nH]c2ccc(C3CCN(C(=O)CNC)CC3)cc12 [Example 529, 1-(4-(2-(2,6-dimethylpyridin-4-yl)-3-ethyl-1H-indol-5-yl)piperidin-1-yl)-2-(methylamino)ethan-1-one] | 6.6 | 119 | 28.2 | – | – | – | – | –
COC1CN(C(=O)CN2CCC(c3ccc4[nH]c(-c5cc(C)nc(C)c5)c(C(C)C)c4c3)CC2)C1 [Example 226, 2-(4-(2-(2,6-dimethylpyridin-4-yl)-3-isopropyl-1H-indol-5-yl)piperidin-1-yl)-1-(3-methoxyazetidin-1-yl)ethan-1-one] | 5.4 | 759 | 12.4 | – | – | – | – | –
COCCOCC(=O)N1CCC(c2ccc3[nH]c(-c4cc(C)nc(C)c4)c(C(C)C)c3c2)CC1 [Example 114, 1-(4-(2-(2,6-dimethylpyridin-4-yl)-3-isopropyl-1H-indol-5-yl)piperidin-1-yl)-2-(2-methoxyethoxy)ethan-1-one] | 3.1 | 47200 | 82.5 | – | – | – | – | –
CNCC(=O)N1CCC(c2ccc3[nH]c(-c4cc(C)nc(C)c4F)c(C(C)C)c3c2)CC1 [Example 622, 1-(4-(2-(3-fluoro-2,6-dimethylpyridin-4-yl)-3-isopropyl-1H-indol-5-yl)piperidin-1-yl)-2-(methylamino)ethan-1-one] | 1.2 | 4010 | 6.1 | – | – | – | – | –
Cc1cc(-c2[nH]c3ccc(C4CCN(C5CCN(C(C)C)CC5F)CC4)cc3c2C(C)C)ccn1 (stereo not drawn) [Example 706, 5-(3′-fluoro-1′-isopropyl-[1,4′-bipiperidin]-4-yl)-3-isopropyl-2-(2-methylpyridin-4-yl)-1H-indole] | 23 | 340 | 5 | – | – | – | – | –
CCc1c(-c2ccnc(C)c2)[nH]c2ccc(C3CCN(C(=O)NC4CCNCC4)CC3)cc12 [Example 845, 4-(3-ethyl-2-(2-methylpyridin-4-yl)-1H-indol-5-yl)-N-(piperidin-4-yl)piperidine-1-carboxamide] | – | – | – | 148 | 1170 | 92.9 | – | –
CCc1c(-c2ccnc(N)c2)[nH]c2ccc(C3CCN(C4CCN(CC(C)C)CC4)CC3)cc12 [Example 773, 4-(3-ethyl-5-(1′-isobutyl-[1,4′-bipiperidin]-4-yl)-1H-indol-2-yl)pyridin-2-amine] | 613 | 45 | 114 | – | – | – | – | –
Cc1cc(-c2[nH]c3ccc(C4CCN(CC(=O)N5CCC[C@@H]5CO)CC4)cc3c2C(C)C)cc(C)n1 [Example 302, (R)-2-(4-(2-(2,6-dimethylpyridin-4-yl)-3-isopropyl-1H-indol-5-yl)piperidin-1-yl)-1-(2-(hydroxymethyl)pyrrolidin-1-yl) ethan-1-one] | 8.2 | 1260 | 63.1 | – | – | – | – | –
CCCN1CCC(c2ccc3[nH]c(-c4cc(C)nc(C)c4)c(C(C)C)c3c2)CC1 [Example 323, 2-(2,6-dimethylpyridin-4-yl)-3-isopropyl-5-(1-propylpiperidin-4-yl)-1H-indole] | 1.4 | 359 | 3.9 | – | – | – | – | –
Cc1cc(-c2[nH]c3ccc(C4CCN(Cc5ncccn5)CC4)cc3c2C(C)C)cc(C)n1 [Example 460, 2-(2,6-dimethylpyridin-4-yl)-3-isopropyl-5-(1-(pyrimidin-2-ylmethyl)piperidin-4-yl)-1H-indole] | 6.2 | 396 | 5.8 | – | – | – | – | –
Cc1cc(-c2[nH]c3ccc(C4CCN(CC(=O)N5CCCC5C)CC4)cc3c2C(C)C)cc(C)n1 (stereo not drawn) [Example 259, 2-(4-(2-(2,6-dimethylpyridin-4-yl)-3-isopropyl-1H-indol-5-yl)piperidin-1-yl)-1-(2-methylpyrrolidin-1-yl)ethan-1-one] | 4.5 | – | – | – | – | – | 483 | 12.2
Cc1cc(-c2[nH]c3ccc(C4CCN(CC5CCOC5)CC4)cc3c2C(C)C)cc(C)n1 (stereo not drawn) [Example 469, 2-(2,6-dimethylpyridin-4-yl)-3-isopropyl-5-(1-((tetrahydrofuran-3-yl)methyl)piperidin-4-yl)-1H-indole] | 2.1 | 280 | 2.9 | – | – | – | – | –
Cc1cc(-c2[nH]c3ccc(C4CCN(C(C)C)CC4)cc3c2C(C)C)ccn1 [Example 869, 3-isopropyl-5-(1-isopropylpiperidin-4-yl)-2-(2-methylpyridin-4-yl)-1H-indole] | – | – | – | 13.2 | 803 | 12.3 | – | –
Cc1cc(-c2[nH]c3ccc(C4CCN(CC(=O)N5CCOCC5)CC4)cc3c2C(C)C)cc(C)n1 [Example 232, 2-(4-(2-(2,6-dimethylpyridin-4-yl)-3-isopropyl-1H-indol-5-yl)piperidin-1-yl)-1-morpholinoethan-1-one] | 3.6 | – | – | – | – | – | 627 | 7.7
Cc1cc(-c2[nH]c3ccc(C4CCN(C5CCOCC5)CC4)cc3c2C(C)C)cc(C)n1 [Example 450, 2-(2,6-dimethylpyridin-4-yl)-3-isopropyl-5-(1-(tetrahydro-2H-pyran-4-yl)piperidin-4-yl)-1H-indole] | 7.8 | 572 | 7.9 | – | – | – | – | –
Cc1cc(-c2[nH]c3ccc(C4CCN(Cc5ccn[nH]5)CC4)cc3c2C(C)C)c(C)cn1 [Example 681, 5-(1-((1H-pyrazol-5-yl)methyl)piperidin-4-yl)-2-(2,5-dimethylpyridin-4-yl)-3-isopropyl-1H-indole] | 15.5 | 1530 | 0.6 | – | – | – | – | –
Cc1cc(-c2[nH]c3ccc(C4CCN(CC(F)F)CC4)cc3c2C(C)C)ccn1 [Example 660, 5-(1-(2,2-difluoroethyl)piperidin-4-yl)-3-isopropyl-2-(2-methylpyridin-4-yl)-1H-indole] | 104 | > 50000 | 78.9 | – | – | – | – | –
Cc1cc(-c2[nH]c3ccc(C4CCN(C(=O)CN5CCCC(F)(F)C5)CC4)cc3c2C(C)C)cc(C)n1 [Example 390, 2-(3,3-difluoropiperidin-1-yl)-1-(4-(2-(2,6-dimethylpyridin-4-yl)-3-isopropyl-1H-indol-5-yl)piperidin-1-yl)ethan-1-one] | 17.9 | 25800 | 191 | – | – | – | – | –
CCc1c(-c2ccnc(-c3noc(N)n3)c2)[nH]c2ccc(C3CCNCC3)cc12 [Example 65, 3-(4-(3-ethyl-5-(piperidin-4-yl)-1H-indol-2-yl)pyridin-2-yl)-1,2,4-oxadiazol-5-amine] | 2180 | 1630 | 550 | – | – | – | – | –
